For orientation: T/C means the ratio of treated to control.

“And” between values parts separate entries of the source, which are not always exact repeats. Equal values may be shown once.

The test system of this experiment is Swiss mice, Sarcoma 180 sc, mean tumor weight T/C. The experiment can be described thus: NCI In Vivo Anticancer Drug Screen. Data for tumor model Sarcoma 180 (subcutaneous) in Swiss mice. The note with it: endpoint: mean tumor weight, higher = larger tumour. The gist of the method: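 Transplantable tumors were established in mice, compound was given, then survival or tumor size was recorded. The treated value was divided by the vehicle-control value.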

In the case of `CC(=O)Nc1cc2c(cc1Br)-c1ccc(F)cc1C2`, the T/C (dose: 222.0 mg/kg/injection, schedule: Q01DX007 (ip), vehicle: other) is 56 % of control; the T/C (dose: 333.0 mg/kg/injection, schedule: Q01DX007 (ip), vehicle: other) is 44 % of control; the T/C (dose: 500.0 mg/kg/injection, schedule: Q01DX007 (ip), vehicle: other) is 22 % of control.
Turning to `C[C@]12CC[C@H](OC3OC(CO)C(O)C(O)C3O)C[C@H]1CC[C@@H]1[C@@H]2CC[C@]2(C)[C@@H](C3=CCOC3=O)CC[C@]12O` (some centres not stated), the T/C (dose: 0.01 mg/kg/injection, schedule: Q01DX007 (ip), vehicle: carboxymethylcellulose (CMC)) is 60 % of control; the T/C (dose: 0.05 mg/kg/injection, schedule: Q01DX007 (ip), vehicle: carboxymethylcellulose (CMC)) is 40 % of control; the T/C (dose: 0.12 mg/kg/injection, schedule: Q03DX003 (ip), vehicle: carboxymethylcellulose (CMC)) is 81 % of control; the T/C (dose: 0.12 mg/kg/injection, schedule: Q#A X014 (ip), vehicle: carboxymethylcellulose (CMC)) is 99 % of control; the T/C (dose: 0.2 mg/kg/injection, schedule: Q01DX007 (ip), vehicle: carboxymethylcellulose (CMC)) was 46 % of control; the T/C (dose: 0.25 mg/kg/injection, schedule: Q01DX007 (ip), vehicle: saline) is 82 % of control. Moreover, the T/C was 86 % of control (dose: 0.25 mg/kg/injection, schedule: Q01DX007 (ip), vehicle: water); 75 % of control (dose: 0.25 mg/kg/injection, schedule: Q03DX003 (ip), vehicle: carboxymethylcellulose (CMC)); 57 % of control (dose: 0.25 mg/kg/injection, schedule: Q#A X014 (ip), vehicle: carboxymethylcellulose (CMC)); 49 % of control and 51 % of control (dose: 0.26 mg/kg/injection, schedule: Q01DX007 (ip), vehicle: saline); 105 % of control and 108 % of control (dose: 0.38 mg/kg/injection, schedule: Q03DX003 (ip), vehicle: carboxymethylcellulose (CMC)); 55 % of control (dose: 0.5 mg/kg/injection, schedule: Q01DX007 (ip), vehicle: saline). Further, the T/C was 90 % of control (dose: 0.5 mg/kg/injection, schedule: Q01DX007 (ip), vehicle: water); 92 % of control (dose: 0.5 mg/kg/injection, schedule: Q03DX003 (ip), vehicle: carboxymethylcellulose (CMC)); 53 % of control (dose: 0.5 mg/kg/injection, schedule: Q#A X014 (ip), vehicle: carboxymethylcellulose (CMC)); 34 % of control and 57 % of control (dose: 0.6 mg/kg/injection, schedule: Q01DX007 (ip), vehicle: saline); 27 % of control (dose: 0.8 mg/kg/injection, schedule: Q01DX007 (ip), vehicle: carboxymethylcellulose (CMC)); 47 % of control and 51 % of control (dose: 0.9 mg/kg/injection, schedule: Q01DX007 (ip), vehicle: saline). The T/C runs as follows: (dose: 0.96 mg/kg/injection, schedule: Q01DX007 (ip), vehicle: saline) 13 % of control; (dose: 1.0 mg/kg/injection, schedule: Q01DX007 (ip), vehicle: carboxymethylcellulose (CMC)) 28 % of control; (dose: 1.0 mg/kg/injection, schedule: Q01DX007 (ip), vehicle: saline) 40 % of control; (dose: 1.0 mg/kg/injection, schedule: Q01DX007 (ip), vehicle: water) 40 % of control; (dose: 1.0 mg/kg/injection, schedule: Q#A X014 (ip), vehicle: carboxymethylcellulose (CMC)) 35 % of control; (dose: 1.3 mg/kg/injection, schedule: Q01DX007 (ip), vehicle: saline) 32 % of control and 38 % of control. Further, the T/C is, setting by setting: (dose: 1.9 mg/kg/injection, schedule: Q01DX007 (ip), vehicle: saline) 13 % of control; (dose: 2.0 mg/kg/injection, schedule: Q01DX007 (ip), vehicle: saline) 22 % of control and 43 % of control; (dose: 10.4 mg/kg/injection, schedule: Q01DX007 (oral), vehicle: carboxymethylcellulose (CMC)) 89 % of control; (dose: 16.0 mg/kg/injection, schedule: Q01DX007 (oral), vehicle: carboxymethylcellulose (CMC)) 95 % of control; (dose: 24.0 mg/kg/injection, schedule: Q01DX007 (oral), vehicle: carboxymethylcellulose (CMC)) 110 % of control; (dose: 36.0 mg/kg/injection, schedule: Q01DX007 (oral), vehicle: carboxymethylcellulose (CMC)) 74 % of control. Moreover, the T/C (dose: 54.0 mg/kg/injection, schedule: Q01DX007 (oral), vehicle: carboxymethylcellulose (CMC)) is 101 % of control; the T/C (dose: 80.0 mg/kg/injection, schedule: Q01DX007 (oral), vehicle: carboxymethylcellulose (CMC)) was 105 % of control; the T/C (dose: 81.0 mg/kg/injection, schedule: Q01DX007 (oral), vehicle: carboxymethylcellulose (CMC)) is 100 % of control; the T/C (dose: 120.0 mg/kg/injection, schedule: Q01DX007 (oral), vehicle: carboxymethylcellulose (CMC)) is 91 % of control; the T/C (dose: 150.0 mg/kg/injection, schedule: Q01DX007 (oral), vehicle: carboxymethylcellulose (CMC)) was 82 % of control; the T/C (dose: 160.0 mg/kg/injection, schedule: Q01DX007 (oral), vehicle: carboxymethylcellulose (CMC)) was 85 % of control. Besides, the T/C was 97 % of control (dose: 300.0 mg/kg/injection, schedule: Q01DX007 (oral), vehicle: carboxymethylcellulose (CMC)); 96 % of control (dose: 500.0 mg/kg/injection, schedule: Q01DX007 (oral), vehicle: carboxymethylcellulose (CMC)); 73 % of control and 89 % of control (dose: 15.0 micrograms/kg/injection, schedule: Q01DX007 (ip), vehicle: saline); 65 % of control and 77 % of control (dose: 120.0 micrograms/kg/injection, schedule: Q01DX007 (ip), vehicle: saline); 85 % of control and 99 % of control (dose: 125.0 micrograms/kg/injection, schedule: Q01DX007 (ip), vehicle: carboxymethylcellulose (CMC)); 73 % of control and 84 % of control (dose: 240.0 micrograms/kg/injection, schedule: Q01DX007 (ip), vehicle: saline). Also, the T/C (dose: 250.0 micrograms/kg/injection, schedule: Q01DX007 (ip), vehicle: carboxymethylcellulose (CMC)) was 72 % of control and 79 % of control; the T/C (dose: 500.0 micrograms/kg/injection, schedule: Q01DX007 (ip), vehicle: carboxymethylcellulose (CMC)) was 47 % of control and 62 % of control; the T/C (dose: 960.0 micrograms/kg/injection, schedule: Q01DX007 (ip), vehicle: saline) was 33 % of control; the T/C (dose: 2000.0 micrograms/kg/injection, schedule: Q01DX007 (ip), vehicle: carboxymethylcellulose (CMC)) is 68 % of control.
`Nc1ccc(C(=O)NCCCC(=O)O)cc1`: the T/C is, setting by setting: (dose: 125.0 mg/kg/injection, schedule: Q01DX007 (ip), vehicle: water) 101 % of control; (dose: 500.0 mg/kg/injection, schedule: Q01DX007 (ip), vehicle: water) 90 % of control.
With `O=[N+]([O-])c1cccc2nsnc12`, the T/C reads like this: (dose: 12.5 mg/kg/injection, schedule: Q01DX007 (ip), vehicle: carboxymethylcellulose (CMC)) 114 % of control; (dose: 25.0 mg/kg/injection, schedule: Q01DX007 (ip), vehicle: carboxymethylcellulose (CMC)) 174 % of control.
As to `C=CCSc1ncnc2c1ncn2C1OC(CO)C(O)C1O` (configuration not stated), the T/C was 80 % of control and 83 % of control (dose: 25.0 mg/kg/injection, schedule: Q01DX007 (ip), vehicle: saline); 35 % of control and 52 % of control (dose: 100.0 mg/kg/injection, schedule: Q01DX007 (ip), vehicle: saline); 34 % of control and 49 % of control (dose: 200.0 mg/kg/injection, schedule: Q01DX007 (ip), vehicle: saline).
For the molecule `CC(=O)OC1(C)CC(C)C(=O)C(C(O)CC2CC(=O)NC(=O)C2)C1` (configuration not stated), the T/C runs as follows: (dose: 1:40.0 dilution, schedule: Q01DX007 (ip), vehicle: water) 122 % of control; (dose: 1:2000.0 dilution, schedule: Q01DX007 (ip), vehicle: water) 79 % of control and 92 % of control; (dose: 1:4000.0 dilution, schedule: Q01DX007 (ip), vehicle: water) 49 % of control.
On to `CCOC(C)C(/C=N/NC(N)=S)=NNC(N)=S` (configuration not stated), for which the T/C (dose: 15.0 mg/kg/injection, schedule: Q01DX007 (ip), vehicle: saline) was 82 % of control; the T/C (dose: 30.0 mg/kg/injection, schedule: Q01DX007 (ip), vehicle: saline) is 37 % of control; the T/C (dose: 60.0 mg/kg/injection, schedule: Q01DX007 (ip), vehicle: saline) was 47 % of control; the T/C (dose: 120.0 mg/kg/injection, schedule: Q01DX007 (ip), vehicle: saline) was 20 % of control.
In the case of `NNC(=O)CCC(N)C(=O)O` (configuration not stated), the T/C was 97 % of control (dose: 5.75 mg/kg/injection, schedule: Q#A X014 (ip), vehicle: carboxymethylcellulose (CMC)); 90 % of control (dose: 11.5 mg/kg/injection, schedule: Q#A X014 (ip), vehicle: carboxymethylcellulose (CMC)); 118 % of control (dose: 23.0 mg/kg/injection, schedule: Q#A X014 (ip), vehicle: carboxymethylcellulose (CMC)); 70 % of control (dose: 46.0 mg/kg/injection, schedule: Q#A X014 (ip), vehicle: carboxymethylcellulose (CMC)).

The values above are taken from PubChem BioAssay AID342 (DTP/NCI, 2004).
